Measurements from patent US7803788B2, “Prodrugs of phosphonate nucoleotide analogues” (Gilead Sciences, Inc., priority 2000, dated 2010).
Like-named read-outs stand apart in the source and are kept apart here.

How the values were obtained:
HIV-1 = assay: In vitro anti-HIV-1 activity in MT-2 cells; assay type: cell-based
MT-2 cells = assay: Cytotoxicity in MT-2 cells; settings: Table 4
[1] = dogs, oral, 10 mg-equivalent of PMPA/kg
Protocol: Formulations. The prodrugs were formulated as solutions in 50 mM citric acid within 0.5 hour prior to dose. All compounds used in the studies were synthesized by Gilead Sciences. The following lots were used:
Dose Administration and Sample Collection. The in-life phase of this study was conducted in accordance with the recommendations of the “Guide for the Care and Use of Laboratory Animals” (National Institutes of Health publication 86-23) and was approved by an Institutional Animal Care and Use Committee. Fasted male beagle dogs (10±2 kg) were used for the studies. Each drug was administered as a single dose by oral gavage (1.5-2 ml/kg). The dose was 10 mg-equivalent of PMPA/kg. […] Blood (1.0 ml) was processed immediately for plasma by centrifugation at 2,000 rpm for 10 min. Plasma samples were frozen and maintained at […] until analyzed.
Peripheral Blood Mononuclear Cell (PBMC) preparation. Whole blood (8 ml) drawn at specified time points was mixed in equal proportion with phosphate buffered saline (PBS), layered onto 15 ml of Ficoll-Paque solution (Pharmacia Biotech,) and centrifuged at 400×g for 40 min. PBMC layer was removed and washed once with PBS. Formed PMBC pellet was reconstituted in 0.5 ml of PBS, cells were resuspended, counted using hemocytometer and maintained at […] until analyzed. The number of cells multiplied by the mean single-cell volume was used in calculation of intracellular concentrations. […] Agents Chemother.
Determination of PMPA and Prodrugs in plasma and PBMCs. […] Derivatized samples were then evaporated to dryness and reconstituted in 100 μl of water for HPLC analysis.
Before intracellular PMPA could be determined by HPLC, the large amounts of adenine related ribonucleotides present in the PBMC extracts had to be removed by selective oxidation.
The mobile phases used were: A, 5% acetonitrile in 25 mM potassium phosphate buffer with 5 mM tetrabutyl ammonium bromide (TBABr), pH 6.0; B, 60% acetonitrile in 25 mM potassium phosphate buffer with 5 mM TBABr, pH 6.0. The flow rate was 2 ml/min and the column temperature was maintained at 35° C. by a column oven. […] Data was acquired and stored by a laboratory data acquisition system (PeakPro, Beckman, Allendale, N.J.).
Pharmacokinetic Calculations. […] The AUC values were calculated using the trapezoidal rule.

[2] = Excretion and tissue distribution of radiolabelled GS-7340 in dogs; settings: for % Dose / Conc.: dogs, oral 10 mg-eq. PMPA/kg
Protocol: Plasma and peripheral blood mononuclear cells (PBMCs) were obtained over the 24-hr period. Urine and feces were cage collected over 24 hr. At 24 h after the dose, the animals were sacrificed and tissues removed for analysis. Total radioactivity in tissues was determined by oxidation and liquid scintillation counting.

[3] = Stability in human plasma; assay type: in vitro ADME; settings: 37° C., TBS pH 7.5
Protocol: (§1) The in vitro metabolism and stability of separated diastereomers were determined in PLCE, MT-2 extract and human plasma. A biological sample listed below, 80 μL, was transferred into a screw-capped centrifuge tube and incubated at 37° C. for 5 min. A solution containing 0.2 mg/mL of the test compound in a suitable buffer, 20 μL, was added to the biological sample and mixed. The reaction mixture, 20 μL, was immediately sampled and mixed with 60 μL of methanol containing 0.015 mg/mL of 2-hydroxymethylnaphthalene as an internal standard for HPLC analysis. The sample was taken as the time-zero sample. Then, at specific time points, the reaction mixture, 20 μL, was sampled and mixed with 60 μl of methanol containing the internal standard. The mixture thus obtained was centrifuged at 15,000 G for 5 min and the supernatant was analyzed with HPLC under the conditions described below.
(§2) The biological samples evaluated are as follows, • (1) PLCE (porcine liver carboxyesterase from Sigma, 160 u/mg protein, 21 mg protein/mL) diluted 20 fold with PBS (phosphated-buffered saline). • (2) MT-2 cell extract was prepared from MT-2 cells according to the published procedure [A. Pompon, I. Lefebvre, J.-L. Imbach, S. Kahn, and D. Farquhar, “Antiviral Chemistry & Chemotherapy”, 5:91-98 (1994)] except for using HEPES buffer described below as the medium. • (3) Human plasma (pooled normal human plasma from George King Biomedical Systems, Inc.)
In the study for human plasma, the test compound was dissolved in TBS. TBS (tris-buffered saline, Sigma) contains 0.05 M Tris, 0.0027 M potassium chloride, and 0.138 M sodium chloride. pH 7.5 at 37° C.
(§3) The HPLC analysis was carried out under the following conditions.

[4] = Stability / hydrolysis in MT-2 cell extract; assay type: in vitro ADME; settings: 37° C., HEPES buffer pH 7.4
Protocol: as §1, §2
In the study for MT-2 cell extracts, the test compound was dissolved in HEPES buffer. HEPES buffer contains 0.010 M HEPES, 0.05 M potassium chloride, 0.005 M magnesium chloride, and 0.005 M dl-dithiothreitol. pH 7.4 at 37° C.
as §3

[5] = Table 4, activity of isomer A over isomer B
[6] = Table 4, effect of diastereomer, read-out: IC50
[7] = Table 5 (selected IC50 data from Table 4), read-out: HIV IC50

CCOC(=O)C(C)NP(=O)(COC(C)Cn1cnc2c(N)ncnc21)Oc1ccccc1 (mixture of isomers) [Ala-ethyl, Phenyl PMPA, Ethyl L-Alanyl Amidate]
Fold change (HIV-1; Table 4, IC50 relative to PMPA): 250x
A/B activity (HIV-1; [5]): 10x
CC50 (MT-2 cells): 60000 nM

COC(=O)C(C)NP(=O)(COC(C)Cn1cnc2c(N)ncnc21)Oc1ccccc1 (mixture of isomers) [Ala-methylester]
Fold change (HIV-1; Table 4, IC50 relative to PMPA): 200x
A/B activity (HIV-1; [5]): 20x
CC50 (MT-2 cells): 80000 nM

CCOC(=O)CNP(=O)(COC(C)Cn1cnc2c(N)ncnc21)Oc1ccccc1 (mixture of isomers) [Gly-ethylester]
A/B activity (HIV-1): 20x
Fold change (HIV-1): 10x
IC50 (HIV-1; read-out: IC50): 500 nM

COC(=O)C(C)NP(=O)(COC(C)Cn1cnc2c(N)ncnc21)Oc1ccccc1 (single isomer, unassigned) [GS-6957a]
Fold change (HIV-1; Table 4, IC50 relative to PMPA): 670x

COC(=O)C(C)NP(=O)(COC(C)Cn1cnc2c(N)ncnc21)Oc1ccccc1 (single isomer, unassigned) [GS-6957b]
Fold change (HIV-1; Table 4, IC50 relative to PMPA): 33x

COC(=O)C(Cc1ccccc1)NP(=O)(COC(C)Cn1cnc2c(N)ncnc21)Oc1ccccc1 (single isomer, unassigned) [GS-7003a]
Fold change (HIV-1): 500x

COC(=O)C(Cc1ccccc1)NP(=O)(COC(C)Cn1cnc2c(N)ncnc21)Oc1ccccc1 (single isomer, unassigned) [GS-7003b]
Fold change (HIV-1): 50x

CCOC(=O)C(C)NP(=O)(COC(C)Cn1cnc2c(N)ncnc21)Oc1ccccc1 (single isomer, unassigned) [GS-7114]
IC50 (HIV-1; [6]): 5 nM
Fold change (HIV-1; Table 4, IC50 relative to PMPA): 1,000x
PBMC/Plasma Exposure Ratio [1]: 122
Prodrug in Plasma [1]: YES

CCOC(=O)C(C)NP(=O)(COC(C)Cn1cnc2c(N)ncnc21)Oc1ccccc1 (single isomer, unassigned) [GS-7115]
IC50 (HIV-1; [6]): 50 nM
Fold change (HIV-1; Table 4, IC50 relative to PMPA): 100x
PBMC/Plasma Exposure Ratio [1]: 43
Prodrug in Plasma [1]: YES

CCOC(=O)CNP(=O)(COC(C)Cn1cnc2c(N)ncnc21)Oc1ccccc1 (single isomer, unassigned) [GS-7335]
Fold change (HIV-1): 5x

CC(C)OC(=O)C(C)NP(=O)(COC(C)Cn1cnc2c(N)ncnc21)Oc1ccccc1 (single isomer, unassigned) [compound 4]
IC50 (HIV-1; [7]): 60 nM

CCOC(=O)[C@H](CC)NP(=O)(CO[C@H](C)Cn1cnc2c(N)ncnc21)Oc1ccccc1 (some centres unmarked) [ABA-ethyl]
A/B activity (HIV-1): 7.5x
Fold change (HIV-1): 625x
CC50 (MT-2 cells): > 100000 nM

CCOC(=O)CNP(=O)(CO[C@H](C)Cn1cnc2c(N)ncnc21)Oc1ccccc1 (some centres unmarked) [GS-7119]
Fold change (HIV-1): 100x
CC50 (MT-2 cells): > 100000 nM

CC(C)OC(=O)[C@H](C)N[P@](=O)(CO[C@H](C)Cn1cnc2c(N)ncnc21)Oc1ccccc1 [GS-7339]
IC50 (HIV-1; [6]): 60 nM
CC50 (MT-2 cells): > 100000 nM

CCOC(=O)C(CC)NP(=O)(COC(C)Cn1cnc2c(N)ncnc21)Oc1ccccc1 (centres unmarked) [GS-7342]
Fold change (HIV-1): 1,250x

C[C@H](Cn1cnc2c(N)ncnc21)OCP(=O)(O)O [PMPA, (R)-9-[2-(phosphonomethoxy)propyl]adenine, reference compound]
Fold change (HIV-1): 1x

COC(=O)[C@H](Cc1ccccc1)NP(=O)(CO[C@H](C)Cn1cnc2c(N)ncnc21)Oc1ccccc1 (some centres unmarked) [Phe-methylester]
A/B activity (HIV-1): 10x
Fold change (HIV-1): 170x

CC(C)OC(=O)OCOP(=O)(CO[C@H](C)Cn1cnc2c(N)ncnc21)OCOC(=O)OC(C)C.O=C(O)/C=C/C(=O)O [TDF, tenofovir disoproxil fumarate]
% Dose ([2]; Abdominal fat): 0.00%
Conc. ([2]; Abdominal fat): 0.16 ug-eq/g
% Dose ([2]; Adrenal Gland): 0.00%
Conc. ([2]; Adrenal Gland): 1.90 ug-eq/g
% Dose ([2]; Axillary Lymph Nodes): 0.00%
Conc. ([2]; Axillary Lymph Nodes): 0.37 ug-eq/g
% Dose ([2]; Bile): 0.00%
% Dose ([2]; Bone Marrow): 0.00%
Conc. ([2]; Bone Marrow): 0.20 ug-eq/g
% Dose ([2]; Brain): 0.00%
Conc. ([2]; Brain): <LOD
% Dose ([2]; Cerebrospinal Fluid): 0.00%
Conc. ([2]; Cerebrospinal Fluid): <LOD
% Dose ([2]; Duodenum): 0.49%
% Dose ([2]; Eye (L + R)): 0.00%
Conc. ([2]; Eye (L + R)): 0.06 ug-eq/g
% Dose ([2]; Femoral Bone): 0.00%
Conc. ([2]; Femoral Bone): 0.08 ug-eq/g
% Dose ([2]; Gall bladder): 0.00%
% Dose ([2]; Heart): 0.03%
Conc. ([2]; Heart): 0.46 ug-eq/g
% Dose ([2]; Ileum): 0.01%
Conc. ([2]; Ileum): 0.50 ug-eq/g
% Dose ([2]; Iliac Lymph Nodes): 0.00%
Conc. ([2]; Iliac Lymph Nodes): 0.51 ug-eq/g
% Dose ([2]; Inguinal Lymph Nodes): 0.00%
Conc. ([2]; Inguinal Lymph Nodes): 0.28 ug-eq/g
% Dose ([2]; Lungs): 0.03%
Conc. ([2]; Lungs): 0.53 ug-eq/g
% Dose ([2]; Mesenteric Lymph Nodes): 0.00%
Conc. ([2]; Mesenteric Lymph Nodes): 1.20 ug-eq/g
% Dose ([2]; Pancreas): 0.00%
Conc. ([2]; Pancreas): 0.57 ug-eq/g
% Dose ([2]; Pituitary Gland): 0.00%
Conc. ([2]; Pituitary Gland): 0.23 ug-eq/g
% Dose ([2]; Prostate): 0.00%
Conc. ([2]; Prostate): 0.23 ug-eq/g
% Dose ([2]; Salivary Gland (L + R)): 0.00%
Conc. ([2]; Salivary Gland (L + R)): 0.45 ug-eq/g
% Dose ([2]; Skeletal Muscle): 0.00%
Conc. ([2]; Skeletal Muscle): 0.11 ug-eq/g
% Dose ([2]; Skin): 0.00%
Conc. ([2]; Skin): 0.13 ug-eq/g
% Dose ([2]; Spinal Cord): 0.00%
Conc. ([2]; Spinal Cord): <LOD
% Dose ([2]; Spleen): 0.00%
Conc. ([2]; Spleen): 0.63 ug-eq/g
% Dose ([2]; Stomach): 0.11%
% Dose ([2]; Testes (L + R)): 0.02%
% Dose ([2]; Thyroid Gland): 0.00%
Conc. ([2]; Thyroid Gland): 0.30 ug-eq/g
% Dose ([2]; Whole Blood): 0.00%
Conc. ([2]; Whole Blood): 0.85 ug-eq/g
prodrug concentration in the plasma ([2]; dog, in vivo): below the level of assay detection

CC(C)OC(=O)[C@H](C)N[P@](=O)(CO[C@H](C)Cn1cnc2c(N)ncnc21)Oc1ccccc1 [compound 3]
IC50 (HIV-1; [7]): 5 nM
Human Plasma Stability (HP) t1/2 [3]: 90.0 min
MT-2 extract hydrolysis product [4]: Met. X & PMPA

CC(C)OC(=O)OCOP(=O)(CO[C@H](C)Cn1cnc2c(N)ncnc21)OCOC(=O)OC(C)C [compound 7]
Human Plasma Stability (HP) t1/2 [3]: 0.41 min
